From US20070293399A1, “SUBSTITUTED DIAMINO-1,3,5-TRIAZINES, PROCESSES FOR THEIR PREPARATION AND THEIR USE AS HERBICIDES AND CROP GROWTH REGULATORS” (Bayer CropScience AG, priority 2006, published 2007)

How the values were obtained:
[1] = test system: Stellaria media, Lolium multiflorum, Amaranthus retroflexus, Sinapis alba, Avena sativa and Setaria viridis; test: Pre-emergence herbicidal action (greenhouse pot test); format: in vivo; details: application rate of 1 kg or less of active substance per hectare; scored visually after 3 to 4 weeks in comparison to untreated controls
Description: Seeds or rhizome pieces of mono- and dicotyledonous weed plants were placed in sandy loam in plastic pots and covered with soil. The inventive compounds, which have been formulated in the form of wettable powders or emulsion concentrates, were then applied to the surface of the covering soil as an aqueous suspension or emulsion in different dosages with an application rate of from 600 to 800 l/ha of water (converted).

[2] = test system: Sinapis alba, Echinochloa crus-galli, Lolium multiflorum, Stellaria media, Cyperus iria, Amaranthus retroflexus, Setaria viridis, Avena sativa, Lamium …; test: Post-emergence herbicidal action (greenhouse pot test); format: in vivo; details: application rate of 1 kg and less of active substance per hectare; treated at three-leaf stage; scored visually after approx. 3 to 4 weeks in comparison to untreated controls
Procedure: Seeds or rhizome pieces of mono- and dicotyledonous weeds were placed in sandy loam in plastic pots, covered with soil and grown in a greenhouse under good growth conditions. Three weeks after the sowing, the test plants were treated at the three-leaf stage. The inventive compounds formulated as spray powders or as emulsion concentrates were sprayed onto the green plant parts in various dosages with an application rate of from 600 to 800 l/ha of water (converted). After the test plants had been left to stand in the greenhouse under optimal growth conditions for approx. 3 to 4 weeks, the action of the preparations was scored visually in comparison to untreated controls. The inventive compositions also had good post-emergence herbicidal activity against a wide spectrum of economically important gramineous and broadleaf weeds.

| SMILES | herbicidal action against harmful plants in the pre-emergence method [1] | herbicidal action against harmful plants in the post-emergence method [2] |
| --- | --- | --- |
| CC(=O)Nc1ncnc(NC2c3cc(F)ccc3CC2C)n1 (racemic) [Compound 1.1] | very good herbicidal action | very good herbicidal action |
| CC1Cc2ccc(F)cc2C1Nc1ncnc(NC(=O)C(Cl)(Cl)Cl)n1 (racemic) [Compound 1.2] | very good herbicidal action | very good herbicidal action |
| CC1Cc2ccc(F)cc2C1Nc1ncnc(NC(=O)C(F)(F)F)n1 (racemic) [Compound 1.3] | very good herbicidal action | very good herbicidal action |
| CC1Cc2ccc(F)cc2C1Nc1ncnc(NC(=O)CCl)n1 (racemic) [Compound 1.4] | very good herbicidal action | very good herbicidal action |
| CCC(=O)Nc1ncnc(NC2c3cc(F)ccc3CC2C)n1 (racemic) [Compound 1.5] | very good herbicidal action | very good herbicidal action |
| COC(=O)Nc1nc(CF)nc(NC2c3cc(F)ccc3CC2C)n1 (racemic) [Compound 1.11] | very good herbicidal action | very good herbicidal action |
| CCC(=O)Nc1nc(CF)nc(NC2c3cc(F)ccc3CC2C)n1 (racemic) [Compound 1.12] | very good herbicidal action | very good herbicidal action |
| CC1Cc2ccc(F)cc2C1Nc1nc(CF)nc(NC(=O)C(F)(F)F)n1 (racemic) [Compound 1.13] | very good herbicidal action | very good herbicidal action |
| CC1Cc2ccc(F)cc2C1Nc1nc(CF)nc(NC(=O)C(Cl)(Cl)Cl)n1 (racemic) [Compound 1.14] | very good herbicidal action | very good herbicidal action |
| CC(=O)Nc1nc(NC2CCOc3c(C)cc(F)cc32)nc(C2CC2)n1 (racemic) [Compound 1.31] | very good herbicidal action | very good herbicidal action |
| COCc1nc(NC(C)=O)nc(NC2CCc3ccccc32)n1 (racemic) [Compound 1.32] | very good herbicidal action | very good herbicidal action |
| CC(=O)Nc1nc(NC2CCOc3c(C)cc(F)cc32)nc(C(C)Cc2ccc(F)cc2)n1 (racemic) [Compound 1.33] | very good herbicidal action | very good herbicidal action |
| CCC(=O)Nc1nc(NC2CCOc3c(C)cc(F)cc32)nc(C(C)Cc2ccc(F)cc2)n1 (racemic) [Compound 1.38] | very good herbicidal action | very good herbicidal action |
| COCc1nc(NC(C)=O)nc(NC2CCCc3c(C)cc(C)cc32)n1 (racemic) [Compound 1.39] | very good herbicidal action | very good herbicidal action |
| CC(=O)Nc1ncnc(NC2c3cccc(C)c3CC2C)n1 (racemic) [Compound 1.46] | very good herbicidal action | very good herbicidal action |
| CC(=O)Nc1ncnc(NC2CCOc3ccc(C)cc32)n1 (racemic) [Compound 1.47] | very good herbicidal action | very good herbicidal action |
| Cc1ccc2c(c1)C(Nc1nc(NC(=O)C(Cl)(Cl)Cl)nc(C(C)F)n1)CCO2 (racemic) [Compound 1.51] | very good herbicidal action | very good herbicidal action |

| SMILES | herbicidal action against harmful plants in the pre-emergence method [1] | herbicidal action against harmful plants in the post-emergence method [2] |
| --- | --- | --- |
| Cc1ccc2c(c1C)OCCC2Nc1nc(NC(=O)C2CC2)nc(C2CC2)n1 (racemic) [Compound 1.70] | very good herbicidal action | very good herbicidal action |
| CC(=O)Nc1ncnc(N[C@@H]2CCCc3ccccc32)n1 [Compound 2.1, N1-{4-[(1R)-1,2,3,4-Tetrahydro-1-naphthylamino]-1,3,5-triazin-2-yl}acetamide] | very good herbicidal action | very good herbicidal action |
| CCC(=O)Nc1ncnc(N[C@@H]2CCCc3ccccc32)n1 [Compound 2.2] | very good herbicidal action | very good herbicidal action |
| CC(=O)Nc1ncnc(N[C@H]2c3cc(C)ccc3C[C@@H]2C)n1 [Compound 2.9] | very good herbicidal action | very good herbicidal action |
| Cc1ccc2c(c1)[C@H](Nc1ncnc(NC(=O)C(F)(F)F)n1)[C@@H](C)C2 [Compound 2.12, N-(4-{[(1R,2S)-2,6-Dimethyl-2,3-dihydro-1H-inden-1-yl]-amino}-1,3,5-triazin-2-yl)-2,2,2-trifluoroacetamide] | very good herbicidal action | very good herbicidal action |
| CC(=O)Nc1nc(N[C@H]2c3cc(C)ccc3C[C@@H]2C)nc([C@@H](C)F)n1 [Compound 2.13] | very good herbicidal action | very good herbicidal action |
| CCC(=O)Nc1nc(N[C@H]2c3cc(C)ccc3C[C@@H]2C)nc([C@@H](C)F)n1 [Compound 2.14] | very good herbicidal action | very good herbicidal action |
| Cc1ccc2c(c1)[C@H](Nc1nc(NC(=O)C(F)(F)F)nc([C@@H](C)F)n1)[C@@H](C)C2 [Compound 2.26] | very good herbicidal action | very good herbicidal action |
| CC(=O)Nc1nc(N[C@@H]2CCCc3ccccc32)nc([C@@H](C)F)n1 [Compound 2.31] | very good herbicidal action | very good herbicidal action |
| C[C@@H](F)c1nc(NC(=O)C(F)(F)F)nc(N[C@@H]2CCCc3ccccc32)n1 [Compound 2.32] | very good herbicidal action | very good herbicidal action |
| CC(=O)Nc1nc(C)nc(N[C@H]2c3cc(C)ccc3C[C@@H]2C)n1 [Compound 2.33] | very good herbicidal action | very good herbicidal action |
| C[C@@H](F)c1nc(NCCC#N)nc(N[C@@H]2CCCc3ccccc32)n1 [Compound 2.38, 3-({4-[(1R)-1-Fluoroethyl]-6-[(1R)-1,2,3,4-tetrahydronaphth-1-ylamino]-1,3,5-triazin-2-yl}amino)propanenitrile] | very good herbicidal action | very good herbicidal action |
| C[C@@H](F)c1nc(N[C@@H]2CCCc3ccccc32)nc(N(CCC#N)CCC#N)n1 [Compound 2.39, 3,3′-({4-[(1R)-1-Fluoroethyl]-6-[(1R)-1,2,3,4-tetrahydronaphth-1-ylamino]-1,3,5-triazin-2-yl}imino)dipropanenitrile] | very good herbicidal action | very good herbicidal action |
| Cc1ccc2c(c1)[C@H](Nc1ncnc(NC(=O)NC(C)(C)C)n1)[C@@H](C)C2 [Compound 2.43, N-(Tert-butyl)-N′-(4-{[(1R,2S)-2,6-dimethyl-2,3-dihydro-1H-inden-1-yl]amino}-1,3,5triazin-2-yl)urea] | very good herbicidal action | very good herbicidal action |
| Cc1ccc(NC(=O)Nc2nc(N[C@@H]3CCCc4ccccc43)nc([C@@H](C)F)n2)cc1 [Compound 2.59] | very good herbicidal action | very good herbicidal action |
| Cc1ccc(NC(=O)Nc2ncnc(NC3c4cc(C)ccc4CC3C)n2)cc1 (centres unmarked) [Compound 2.60] | very good herbicidal action | very good herbicidal action |
| Cc1ccc2c(c1)C(Nc1nc(NC(=O)C3CC3)nc(C(C)F)n1)C(C)C2 (centres unmarked) [Compound 2.67] | very good herbicidal action | very good herbicidal action |
